Measured values reported in PubChem BioAssay AID180 (DTP/NCI, 2004).
Several values for one entry are separate records, joined by “and”; a condition that tells them apart may be missing. Equal values may be shown once.

Test system: BDF1 mice, Adenocarcinoma 755 s.c., tumor weight T/C
Assay: NCI In Vivo Anticancer Drug Screen. Data for tumor model Adenocarcinoma 755 (subcutaneous) in B6D2F1 (BDF1) mice
Conditions: endpoint: mean tumor weight, higher = larger tumour
Method: The antitumor activity of compounds was measured in mice bearing transplantable tumors. Survival or tumor size were measured and the results are expressed as the measurement made in the treated group (T) divided by the measurement made in the vehicle treated control group (C). The tumor model used in this assay is Adenocarcinoma 755 (subcutaneous) in B6D2F1 (BDF1) mice

[1] = dose: 62.5 mg/kg/injection, schedule: Q01DX011 (ip), vehicle: methylcellulose (MC)
[2] = dose: 125.0 mg/kg/injection, schedule: Q01DX011 (ip), vehicle: methylcellulose (MC)
[3] = dose: 250.0 mg/kg/injection, schedule: Q01DX011 (ip), vehicle: methylcellulose (MC)
[4] = dose: 75.0 mg/kg/injection, schedule: Q01DX011 (ip), vehicle: saline

CC(=O)OC1CCC(C2CCCCC2)CC1 (stereo not drawn)
T/C (dose: 29.0 mg/kg/injection, schedule: Q01DX011 (ip), vehicle: saline): 157 % of control
T/C (dose: 57.0 mg/kg/injection, schedule: Q01DX011 (ip), vehicle: saline): 173 % of control
T/C (dose: 57.0 mg/kg/injection, schedule: Q01DX011 (oral), vehicle: saline): 86 % of control
T/C (dose: 113.0 mg/kg/injection, schedule: Q01DX011 (oral), vehicle: saline): 102 % of control
T/C (dose: 225.0 mg/kg/injection, schedule: Q01DX011 (oral), vehicle: saline): 84 % of control

CCNc1nncs1
T/C (dose: 8.63 mg/kg/injection, schedule: Q01DX011 (ip), vehicle: carboxymethylcellulose (CMC)): 65 % of control
T/C (dose: 14.22 mg/kg/injection, schedule: Q01DX011 (ip), vehicle: carboxymethylcellulose (CMC)): 73 % of control
T/C (dose: 17.25 mg/kg/injection, schedule: Q01DX011 (ip), vehicle: carboxymethylcellulose (CMC)): 77 % of control
T/C (dose: 28.45 mg/kg/injection, schedule: Q01DX011 (ip), vehicle: carboxymethylcellulose (CMC)): 84 % of control
T/C (dose: 31.25 mg/kg/injection, schedule: Q01DX011 (ip), vehicle: methylcellulose (MC)): 62 % of control
T/C (dose: 34.5 mg/kg/injection, schedule: Q01DX011 (ip), vehicle: carboxymethylcellulose (CMC)): 101 % of control
T/C (dose: 56.9 mg/kg/injection, schedule: Q01DX011 (ip), vehicle: carboxymethylcellulose (CMC)): 89 % of control and 80 % of control and 84 % of control
T/C [1]: 49 % of control
T/C (dose: 69.0 mg/kg/injection, schedule: Q01DX011 (ip), vehicle: carboxymethylcellulose (CMC)): 103 % of control
T/C (dose: 75.8 mg/kg/injection, schedule: Q01DX011 (ip), vehicle: carboxymethylcellulose (CMC)): 58 % of control and 75 % of control
T/C [2]: 6 % of control

C[N+](C)(C)c1nc(N)nc2c1ncn2C1OC(CO)C(O)C1O (stereo not drawn)
T/C (dose: 30.0 mg/kg/injection, schedule: Q01DX011 (ip), vehicle: saline): 114 % of control
T/C (dose: 60.0 mg/kg/injection, schedule: Q01DX011 (ip), vehicle: saline): 101 % of control
T/C (dose: 120.0 mg/kg/injection, schedule: Q01DX011 (ip), vehicle: saline): 52 % of control
T/C (dose: 240.0 mg/kg/injection, schedule: Q01DX011 (ip), vehicle: saline): 24 % of control
T/C (dose: 400.0 mg/kg/injection, schedule: Q01DX011 (ip), vehicle: saline): 3 % of control

Fc1ccc(CSc2ncnc3c2ncn3C2CCCO2)cc1 (stereo not drawn)
T/C (dose: 4.6 mg/kg/injection, schedule: Q01DX011 (ip), vehicle: methylcellulose (MC)): 53 % of control
T/C (dose: 9.3 mg/kg/injection, schedule: Q01DX011 (ip), vehicle: methylcellulose (MC)): 45 % of control
T/C (dose: 18.7 mg/kg/injection, schedule: Q01DX011 (ip), vehicle: methylcellulose (MC)): 10 % of control
T/C (dose: 37.5 mg/kg/injection, schedule: Q01DX011 (ip), vehicle: methylcellulose (MC)): 1 % of control and 3 % of control

O=CNC(Cc1cccc(N(CCCl)CCCl)c1)C(=O)O (stereo not drawn)
T/C (dose: 0.25 mg/kg/injection, schedule: Q01DX011 (ip), vehicle: methylcellulose (MC)): 96 % of control
T/C (dose: 0.5 mg/kg/injection, schedule: Q01DX011 (ip), vehicle: methylcellulose (MC)): 59 % of control
T/C (dose: 1.0 mg/kg/injection, schedule: Q01DX011 (ip), vehicle: methylcellulose (MC)): 57 % of control
T/C (dose: 1.1 mg/kg/injection, schedule: Q01DX011 (ip), vehicle: methylcellulose (MC)): 36 % of control
T/C (dose: 2.0 mg/kg/injection, schedule: Q01DX011 (ip), vehicle: methylcellulose (MC)): 41 % of control
T/C (dose: 2.25 mg/kg/injection, schedule: Q01DX011 (ip), vehicle: methylcellulose (MC)): 22 % of control
T/C (dose: 4.5 mg/kg/injection, schedule: Q01DX011 (ip), vehicle: methylcellulose (MC)): 4 % of control

Cc1cnc(SCc2ccccc2)nc1N(C)C
T/C (dose: 15.0 mg/kg/injection, schedule: Q01DX011 (ip), vehicle: methylcellulose (MC)): 57 % of control
T/C (dose: 62.0 mg/kg/injection, schedule: Q01DX011 (ip), vehicle: methylcellulose (MC)): 60 % of control
T/C [2]: 65 % of control
T/C [3]: 50 % of control

CN(C)[C@@H]1C(=O)C(C(=O)NCNC2(C(=O)O)CCCC2)=C(O)[C@@]2(O)C(=O)C3=C(O)c4c(O)cccc4[C@@](C)(O)[C@H]3C[C@@H]12
T/C (dose: 50.0 mg/kg/injection, schedule: Q01DX011 (ip), vehicle: saline): 77 % of control
T/C [4]: 65 % of control
T/C (dose: 125.0 mg/kg/injection, schedule: Q01DX011 (ip), vehicle: saline): 41 % of control
T/C (dose: 250.0 mg/kg/injection, schedule: Q01DX011 (ip), vehicle: saline): 1 % of control

c1ccc2[nH]cnc2c1
T/C (dose: 38.5 mg/kg/injection, schedule: Q01DX011 (ip), vehicle: carboxymethylcellulose (CMC)): 74 % of control
T/C (dose: 40.0 mg/kg/injection, schedule: Q01DX011 (ip), vehicle: carboxymethylcellulose (CMC)): 93 % of control
T/C (dose: 43.5 mg/kg/injection, schedule: Q01DX011 (ip), vehicle: carboxymethylcellulose (CMC)): 116 % of control
T/C [1]: 60 % of control
T/C (dose: 77.0 mg/kg/injection, schedule: Q01DX011 (ip), vehicle: carboxymethylcellulose (CMC)): 62 % of control
T/C (dose: 80.0 mg/kg/injection, schedule: Q01DX011 (ip), vehicle: carboxymethylcellulose (CMC)): 72 % of control
T/C (dose: 87.0 mg/kg/injection, schedule: Q01DX011 (ip), vehicle: carboxymethylcellulose (CMC)): 110 % of control
T/C (dose: 123.2 mg/kg/injection, schedule: Q01DX011 (ip), vehicle: carboxymethylcellulose (CMC)): 41 % of control and 57 % of control
T/C [2]: 88 % of control
T/C (dose: 160.0 mg/kg/injection, schedule: Q01DX011 (ip), vehicle: carboxymethylcellulose (CMC)): 105 % of control
T/C (dose: 174.0 mg/kg/injection, schedule: Q01DX011 (ip), vehicle: carboxymethylcellulose (CMC)): 101 % of control
T/C (dose: 205.33 mg/kg/injection, schedule: Q01DX011 (ip), vehicle: carboxymethylcellulose (CMC)): 77 % of control and 82 % of control
T/C [3]: 118 % of control
T/C (dose: 320.0 mg/kg/injection, schedule: Q01DX011 (ip), vehicle: carboxymethylcellulose (CMC)): 123 % of control
T/C (dose: 348.0 mg/kg/injection, schedule: Q01DX011 (ip), vehicle: carboxymethylcellulose (CMC)): 76 % of control

CN(C)S(=O)(=O)c1ncc2[nH]cnc2n1
T/C (dose: 25.0 mg/kg/injection, schedule: Q01DX011 (ip), vehicle: carboxymethylcellulose (CMC)): 116 % of control
T/C (dose: 75.0 mg/kg/injection, schedule: Q01DX011 (ip), vehicle: carboxymethylcellulose (CMC)): 98 % of control
T/C (dose: 225.0 mg/kg/injection, schedule: Q01DX011 (ip), vehicle: carboxymethylcellulose (CMC)): 84 % of control

c1nc2c3c(n1)ncn3CCN2
T/C (dose: 25.0 mg/kg/injection, schedule: Q01DX011 (ip), vehicle: saline): 85 % of control
T/C [4]: 74 % of control
T/C (dose: 225.0 mg/kg/injection, schedule: Q01DX011 (ip), vehicle: saline): 99 % of control

Cc1cccc(-c2c3ccccc3cc3c2ccc2ccccc23)c1
T/C (dose: 30.0 mg/kg/injection, schedule: Q01DX011 (ip), vehicle: methylcellulose (MC)): 96 % of control
T/C (dose: 60.0 mg/kg/injection, schedule: Q01DX011 (ip), vehicle: methylcellulose (MC)): 76 % of control
T/C (dose: 120.0 mg/kg/injection, schedule: Q01DX011 (ip), vehicle: methylcellulose (MC)): 79 % of control
T/C (dose: 240.0 mg/kg/injection, schedule: Q01DX011 (ip), vehicle: methylcellulose (MC)): 119 % of control

Nc1ccc(C(=O)O)c(O)c1
T/C (dose: 37.88 mg/kg/injection, schedule: Q01DX011 (ip), vehicle: carboxymethylcellulose (CMC)): 56 % of control
T/C (dose: 43.25 mg/kg/injection, schedule: Q01DX011 (ip), vehicle: carboxymethylcellulose (CMC)): 55 % of control
T/C (dose: 75.75 mg/kg/injection, schedule: Q01DX011 (ip), vehicle: carboxymethylcellulose (CMC)): 101 % of control
T/C (dose: 86.5 mg/kg/injection, schedule: Q01DX011 (ip), vehicle: carboxymethylcellulose (CMC)): 75 % of control
T/C (dose: 141.17 mg/kg/injection, schedule: Q01DX011 (ip), vehicle: carboxymethylcellulose (CMC)): 157 % of control
T/C (dose: 151.5 mg/kg/injection, schedule: Q01DX011 (ip), vehicle: carboxymethylcellulose (CMC)): 104 % of control
T/C (dose: 173.0 mg/kg/injection, schedule: Q01DX011 (ip), vehicle: carboxymethylcellulose (CMC)): 75 % of control
T/C (dose: 303.0 mg/kg/injection, schedule: Q01DX011 (ip), vehicle: carboxymethylcellulose (CMC)): 71 % of control
T/C (dose: 346.0 mg/kg/injection, schedule: Q01DX011 (ip), vehicle: carboxymethylcellulose (CMC)): 82 % of control

Nc1nc(SCc2ccccc2)c2ncn(C3OC(CO)C(O)C3O)c2n1 (stereo not drawn)
T/C (dose: 25.0 mg/kg/injection, schedule: Q01DX011 (ip), vehicle: methylcellulose (MC)): 10 % of control
T/C (dose: 50.0 mg/kg/injection, schedule: Q01DX011 (ip), vehicle: methylcellulose (MC)): 7 % of control
T/C (dose: 75.0 mg/kg/injection, schedule: Q01DX011 (ip), vehicle: methylcellulose (MC)): 8 % of control
T/C (dose: 100.0 mg/kg/injection, schedule: Q01DX011 (ip), vehicle: methylcellulose (MC)): 6 % of control
